Assay results from US20100093760A1, “METHODS FOR IDENTIFYING COMPOUNDS THAT MODULATE CELL SIGNALING AND METHODS EMPLOYING SUCH COMPOUNDS” (The General Hospital Corporation, priority 2006, published 2010).
“Also recorded” adds a separate entry of the source. Read-outs that look alike come from different tables or passages of the source.

Experiments:
[1] = test system: BMP-mediated SMAD1/5/8 activation in BMPR-II-deficient PASMCs; experiment: BMP-induced SMAD1/5/8 activation in BMPR-II-deficient PASMCs; type: cell-based, murine
Description: (§1) Wild-type and BMPR-II-deficient PASMC were isolated as previously described (Yu et al., J. Biol. Chem. 280:24443-24450, 2005), and cultured in RPMI medium (Invitrogen) supplemented with 10% FBS. C2C12 cells (American Type Culture Collection, Manassas, Va.) were cultured in DMEM supplemented with glutamine and 10% FBS. HepG2 cells and Hep3B cells (ATCC) were cultured in Minimal Essential Alpha Medium with L-glutamine (α-MEM, Invitrogen) containing 10% FBS. For studies of SMAD activation in vitro, PASMC were incubated in 0.5% FCS RPMI for 24 hours, followed by preincubation with drug compounds, noggin, or vehicle for 30 minutes, followed the addition of recombinant BMPs 2, 4, 6, or 7, or TGF-β1 or Activin A (R&D Systems, Minneapolis, Minn.) for 30 minutes.
(§2) Cell extracts or tissues were mechanically homogenized in SDS-lysis buffer (62.5 mM Tris-HCl (pH 6.8), 2% SDS, 10% glycerol, 50 mM DTT, 0.01% bromophenol blue); separated by SDS-PAGE; immunoblotted with anti-phospho-SMAD1/5/8, anti-phospho-SMAD2 (Cell Signaling, Beverly, Mass.), or anti-α-tubulin (Upstate/Millipore, Billerica, Mass.) Abs; and visualized using ECL Plus (GE Healthcare, Piscataway, N.J.). Levels of immunoreactive proteins were quantitated by ImageQuant software on a Storm phosphorimager (GE Healthcare).

[2] = test system: murine hepcidin (HAMP1) mRNA; experiment: Basal hepatic hepcidin mRNA in mice; type: in vivo; details: C57BL/6 mice, single tail vein injection 10 mg/kg, 6 hours
zebrafish embryos = type: in vivo
Description: According to one example of the whole animal-based screening methods of the invention, 1-2 hour old zebrafish embryos are arrayed in the wells of 96-well plates, three embryos per well. A chemical library, which is comprised of tens of thousands of diverse small molecules, is then pin-transferred into the wells at a final concentration of ˜2 to 10 uM. Embryos are observed over the course of next 24-48 hours and scored under a dissecting microscope for phenotype consistent with loss of BMP signaling (dorsalized embryos, FIG. 1) or with the loss of nodal signaling (cyclopia, FIG. 2).
Small molecule screening in zebrafish was performed as previously described (Peterson et al., Nat. Biotechnol. 22:595-599, 2004) with several modifications. Pairs of wild-type zebrafish were mated, and newly-fertilized eggs were arrayed in triplicate in 96-well plates containing E3 buffer. At 4 hours post fertilization (hpf), compounds were added to wells at 5-10 μM. Embryos were incubated at 28.5° C., and gross morphology of embryos was examined at 12, 24, and 48 hpf for dorsalization or ventralization of embryonic axis, as previously described (Mullins et al., Development 123:81-93, 1996). In total, 7,570 compounds were screened, including synthetic screening compounds (Chembridge Corporation, 5,580 small molecules) and known bioactive compounds (Microsource Discovery Systems, 1,840 small molecules and Sigma-Aldrich, 150 small molecules). For follow up studies, Compound C/Dorsomorphin and Ara-A (adenine 9-β-D-arabinofurano-side) were purchased from Sigma (St. Louis, Mo.), and C75 was purchased from EMD Biosciences (San Diego, Calif.).

[3] = test system: zebrafish vascular development (KDR); experiment: Zebrafish vascular development (effects of KDR inhibition); type: in vivo; details: at the doses used for dorsalization
[4] = test system: BMP-mediated SMAD1/5/8 phosphorylation; experiment: Immunoblot of BMP-induced SMAD1/5/8 phosphorylation in PASMCs; type: cell-based, murine; details: for IC50: Mus musculus, PASMC
Description: as §1, §2
The statistical significance of compared measurements was measured using the student's two-tailed T-test or one-way ANOVA with Bonferroni correction. Hill plot analysis of Compound C/Dorsomorphin inhibition of SMAD1/5/8 phosphorylation was performed using GraFit software (Erithacus Software, Surrey, England).

hepcidin promoter = experiment: Hepcidin promoter luciferase reporter assay (Hep-Luc) in Hep3B cells; type: cell-based
Description: Murine PASMCs grown to 50% confluence in 6-well plates were transiently transfected with 0.3 μg Id1 promoter luciferase reporter construct (BRE-Luc, Dr. Peter ten Dijke, Leiden University Medical Center, Netherlands (Korchynskyi et al., J. Biol. Chem. 277:4883-4891, 2002)) in combination with 0.6 μg plasmids expressing constitutively-active forms of BMP type I receptors (caALK2, caALK3, or caALK6, kindly provided by Dr. Kohei Miyazono, University of Tokyo, Japan (Fujii et al., Mol. Biol. Cell 10:3801-3813, 1999)), using Fugene6 (Roche). To assess Activin and […] type I receptor function, PASMCs were transiently transfected with 0.3 μg PAI-1 promoter luciferase reporter construct (CAGA-Luc, Dr. Peter ten Dijke (Dennler et al., Embo J. 17:3091-3100, 1998)) in combination with 0.6 μg plasmids expressing constitutively active forms of type I receptors (caALK4, caALK5, and caALK7, also provided by Dr. Kohei Miyazono (Okadome et al., J. Biol. Chem. 271:21687-21690, 1996; Shimizu et al., Genes Cells 3:125-134, 1998)). For both reporters, 0.2 μg pRL-TK Renilla luciferase (Promega) was used to control for transfection efficiency. […] Cell extracts were harvested, and relative promoter activity quantitated by the ratio of firefly to Renilla luciferase activity using the dual luciferase assay kit (Promega). […] Hepcidin promoter activity was measured by luciferase assay as above.

MAPK p38 = experiment: Immunoblot of BMP4-mediated MAPK p38 phosphorylation in PASMCs; type: cell-based, murine; details: BMP4 20 ng/ml, 0.2-40 μM
[5] = 10 μM, continuous exposure from 8 hpf, scored at 48 hpf

c1cc(-c2cnn3cc(-c4ccc(OCCN5CCCCC5)cc4)cnc23)ccn1 [Compound C/Dorsomorphin]
effect on activation of SMAD1/5/8 by BMPs 2, 4, 6, and 7 ([1]; BMPR-II-deficient PASMCs, 4 μM, BMPs 10 ng/ml, 30 minutes): inhibited | effect on activity of BMPs 2, 4, 6, 7, and 9 ([1]; wild type and BMP type II receptor knockout cells): effectively inhibits | liver hepcidin mRNA relative to controls [2]: one-third | Moderate % (zebrafish embryos; [5]): 0% | Normal % (zebrafish embryos; [5]): 15% | Severe % (zebrafish embryos; 10 μM, interval exposure 2-4 hpf, scored at 48 hpf): 0% | Moderate dorsalization, number of embryos (zebrafish embryos; 10 μM, interval exposure 4-8 hpf, scored at 48 hpf): 8 | Moderate-Severe, number of embryos (zebrafish embryos; DM 2 μM from 3 hpf, scored at 48 hpf): 0 | dorsalization phenotype (zebrafish embryos; ≧5 μM at ≦8 hpf): phenocopied with high penetrance the spectrum of dorsalization defects | effects of KDR inhibition on vascular development (intersomitic blood vessels) [3]: did not observe any of the known effects of KDR inhibition | IC50 ([4]; FIG. 6, read-out: IC50, activation of SMADs 1, 5, and 8 by BMP4): 0.5 µM | IC50 ([4]; PASMCs, Hill plot, 0.1-50 μM, read-out: functional IC50, BMP4-stimulated SMAD1/5/8 phosphorylation): 0.47 µM | level of phosphorylated SMAD1/5/8 in cells not treated with BMP ([4]; PASMCs, 4 μM): below basal levels | effect on activation of SMAD1/5/8 by BMPs 2, 4, 6, and 7 ([4]; PASMCs, 4 μM, BMPs 10 ng/ml, 30 minutes): blocking; also recorded: inhibited | effect on BMP4-mediated SMAD1/5/8 phosphorylation ([4]; PASMCs, BMP4 20 ng/ml, 0.2-40 μM pretreatment 30 minutes): inhibited activation of SMADs 1/5/8 dose dependently; also recorded: dose-dependent inhibition | effect on HJV-induced hepcidin promoter activity (Hep-Luc) (hepcidin promoter; Hep3B cells transfected with HJV): effectively abrogated; also recorded: blocked | effect on BMP2-induced hepcidin promoter activity (Hep-Luc) (hepcidin promoter; Hep3B cells, 10 μM, BMP2 25 ng/ml): effectively abrogated | effect on BMP4-mediated phosphorylation of MAPK p38 (MAPK p38): without affecting MAPK p38 activation; also recorded: without inhibiting p38 activation; also recorded: did not affect; also recorded: does not exhibit significant inhibition
